{
  "source": "patent US5624673A",
  "about": "“Cosmetic or pharmaceutical composition containing a prunella extract” (priority 1993, dated 1997)",
  "system": "erythema caused by ultraviolet",
  "test": "Anti-inflammatory activity on the erythema caused by ultraviolet",
  "format": "in vivo, Dunkin Hartley guinea-pigs",
  "details": "1% in hydrocerine",
  "protocol": "This is investigated using 41 female Dunkin Hartley guinea-pigs weighing 400 to 450 g, divided into 6 groups of 6 and one group of 5 guinea-pigs.\nFor one week before the start of the experiment, the animals are kept at a temperature of 20° plus or minus 1° C. and at a hygrometry of 50% plus or minus 10% and with 12 h of light per day. On the day before the experiment, the animals are carefully shaved on the back using an AESCULAP shaver equipped with a 1/10 mm comb, and then shaved gently on both sides using a Braun razor. A depilating cream is subsequently applied (to a thickness of about 2 mm) and allowed to work for 15 min.\nThe cream is removed with a wooden spatula and the guinea-pigs are then rinsed with tepid water and dried.\nThe guinea-pigs then receive the same irradiation on both sides, the area of the irradiated regions being 2 cm^2. The right side receives the test product, the product being spread beyond the 2 cm^2 so as to make it possible to observe any redness which might be due to the product and which would mask an antiphlogistic effect. The left side receives the placebo.\nApplication of the placebo to the left side enables the effect of UV to be measured under the same conditions on the zones treated with the product and on the untreated zones. This also makes it possible to see any action of the placebo and to assess, in comparison with the placebo, the zone to which the product has been applied.\nThe products are applied immediately after irradiation and then every 2 h up to 6 h after irradiation.\nThe amount applied is not measured but is spread uniformly over the whole region (about 1 mg).\nThe irradiation device used consists of a Biotronic UV312-365 mercury lamp (Vilbert-Loumat). The device for measuring the UV energy, which consists of a photoelectric cell measuring the luminous power of the UV, is fixed to a support at the center of the irradiated zone. This cell is connected to a radiometer on which the desired energy--in this case 2.16 J/cm^2 of UVB (distance from guinea-pig to lamp=20 cm)--is programmed. The lamp switches off automatically once the total amount of energy has been emitted.\nThis irradiation causes an erythema equal to 3 plus or minus 0.5 (see scale) at 6 h.\n20 min before irradiation, the animals are anesthetized with an intraperitoneal dose of 0.5 ml/kg of pentobarbital sodium.\nSix hours after irradiation, the erythema in each region is evaluated macroscopically according to the following scale:\n0 ............... no erythema\n1 ............... slight but visible erythema\n2 ............... clearly visible erythema\n3 ............... substantial erythema\nOne guinea-pig with a score of 1 according to the above notation, one guinea-pig with a score of 2 and one guinea-pig with a score of 3 are singled out after having been thoroughly evaluated as such, and are taken as standard references so that half-unit scores can be awarded. A guinea-pig not evaluated with 1 (standard reference) and not evaluated with 2 will be given a score of 1.5.\nThe results obtained are used to calculate the percentage activity according to the following formula: [formula]\nThe tested extracts according to the invention are in a concentration of 0.2% by weight in the gel. The indomethacin is in a concentration of 1% in the hydrocerine.",
  "note": "Values joined by “and” are separate entries in the source; they are usually repeats but may differ in a detail not shown here. Equal entries are not always repeated.",
  "data": [
    {"smiles": "COc1ccc2c(c1)c(CC(=O)O)c(C)n2C(=O)c1ccc(Cl)cc1", "note": "[Indomethacin, indomethacin]", "values": [
      {"measurement": "difference (UV+placebo)-(UV+product), individual animal", "value": "2.5 and 2 and 3"},
      {"measurement": "Erythema score, product side (individual animal)", "setting": "6 h after UVB 2.16 J/cm^2, scale 0-3", "value": "0.5 and 1 and 0"},
      {"measurement": "Erythema score, product side, mean", "setting": "SD 0.41, placebo mean 2.9, significant at 0.1% (Student t 11.18)", "value": 0.4},
      {"measurement": "difference (UV+placebo)-(UV+product), mean", "setting": "SD 0.5", "value": 2.5},
      {"measurement": "protection (percentage activity)", "setting": "significant at 0.1%", "value": 86.2, "unit": "%"}
    ]}
  ]
}
